Measurements as given in patent US12662479B2 (Foghorn Therapeutics Inc., priority 2020, dated 2026).

Legend:
HiBit-BRM fusion protein = molecular target: T1, HiBit-BRM fusion protein (Homo sapiens, UniProt P51531); assay: HiBiT-BRM cell-based degradation assay (Nano-Glo HiBiT Lytic Detection, 24 h); settings: HeLa cells expressing HiBiT-BRM; for DC50: read-out: BRM HiBit Degradation IC50; for BRM HiBit Degradation Maximum measured: top dose 30 μM
T1 construct: expressed in transfected cells
Summary of the method: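 HeLa cells stably expressing HiBiT-BRM were treated for 24 h with compounds (10-point 3-fold dilutions, 30 μM final top dose, in duplicate). HiBiT was detected by lytic LgBiT complementation luminescence. % degradation was normalized to DMSO (high control) and 2 μM of a reference BRM/BRG1 degrader (low control).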

[1] = molecular target: T2, HiBit-BRG1 fusion protein (Homo sapiens, UniProt P51532); assay: HiBiT-BRG1 cell-based degradation assay (Nano-Glo HiBiT Lytic Detection, 24 h); settings: HeLa cells expressing HiBit-BRG1 and LgBit; for DC50: read-out: BRG1 HiBit Degradation IC50; for Dmax: HeLa, top dose 30 μM, read-out: BRG1 HiBit Degradation Maximum measured
T2 construct: expressed in transfected cells
Summary of the method: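 Stable HeLa line expressing HiBiT-BRG1 and LgBiT, seeded at 5000 cells/well; luminescence read after lytic Nano-Glo HiBiT reagent and 10 min shaking at RT. % degradation normalised between DMSO (high control) and 2 μM reference BRM/BRG1 degrader (low control).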

T2 sequence (P51532 whole entry, the tested form may be a part): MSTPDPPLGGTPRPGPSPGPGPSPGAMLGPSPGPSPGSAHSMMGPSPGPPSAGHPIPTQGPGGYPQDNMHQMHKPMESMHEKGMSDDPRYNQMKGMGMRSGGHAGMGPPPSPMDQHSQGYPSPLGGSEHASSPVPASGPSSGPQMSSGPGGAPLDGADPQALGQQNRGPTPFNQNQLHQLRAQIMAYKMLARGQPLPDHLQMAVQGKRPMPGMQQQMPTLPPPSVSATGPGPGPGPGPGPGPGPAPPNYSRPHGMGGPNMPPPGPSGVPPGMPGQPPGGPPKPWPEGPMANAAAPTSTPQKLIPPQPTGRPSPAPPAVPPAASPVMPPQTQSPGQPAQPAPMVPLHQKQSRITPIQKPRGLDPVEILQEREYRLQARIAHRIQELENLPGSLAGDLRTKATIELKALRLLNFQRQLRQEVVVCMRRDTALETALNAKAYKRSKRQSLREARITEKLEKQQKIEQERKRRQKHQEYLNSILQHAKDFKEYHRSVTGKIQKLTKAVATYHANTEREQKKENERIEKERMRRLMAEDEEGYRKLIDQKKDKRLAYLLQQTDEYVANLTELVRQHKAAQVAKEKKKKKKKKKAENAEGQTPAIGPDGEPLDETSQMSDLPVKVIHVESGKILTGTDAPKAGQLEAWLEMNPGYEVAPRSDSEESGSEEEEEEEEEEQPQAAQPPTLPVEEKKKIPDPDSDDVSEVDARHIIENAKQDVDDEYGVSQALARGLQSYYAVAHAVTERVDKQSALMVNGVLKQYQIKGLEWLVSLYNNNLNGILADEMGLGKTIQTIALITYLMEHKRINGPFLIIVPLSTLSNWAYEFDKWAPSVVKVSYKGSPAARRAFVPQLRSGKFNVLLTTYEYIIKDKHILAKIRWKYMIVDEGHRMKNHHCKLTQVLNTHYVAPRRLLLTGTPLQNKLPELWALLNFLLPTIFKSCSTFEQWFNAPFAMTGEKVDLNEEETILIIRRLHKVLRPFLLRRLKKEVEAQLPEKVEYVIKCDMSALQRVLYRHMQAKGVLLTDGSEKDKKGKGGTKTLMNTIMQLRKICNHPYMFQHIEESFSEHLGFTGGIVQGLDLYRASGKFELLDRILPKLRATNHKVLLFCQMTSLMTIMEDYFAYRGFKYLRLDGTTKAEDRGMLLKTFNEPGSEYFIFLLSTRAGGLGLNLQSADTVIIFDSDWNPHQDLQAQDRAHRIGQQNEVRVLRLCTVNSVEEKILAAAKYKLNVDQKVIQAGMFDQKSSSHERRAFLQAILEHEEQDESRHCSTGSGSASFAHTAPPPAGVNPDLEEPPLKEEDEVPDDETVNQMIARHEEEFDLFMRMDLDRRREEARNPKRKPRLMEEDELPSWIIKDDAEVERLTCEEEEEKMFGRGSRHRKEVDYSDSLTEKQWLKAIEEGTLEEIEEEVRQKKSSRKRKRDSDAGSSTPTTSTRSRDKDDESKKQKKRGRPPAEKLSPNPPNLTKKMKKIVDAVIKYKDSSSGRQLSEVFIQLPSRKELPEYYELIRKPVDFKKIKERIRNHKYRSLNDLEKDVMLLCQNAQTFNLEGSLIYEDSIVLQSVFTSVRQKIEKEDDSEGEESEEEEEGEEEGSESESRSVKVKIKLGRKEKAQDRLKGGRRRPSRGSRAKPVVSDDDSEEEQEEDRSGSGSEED
T1 sequence (P51531 whole entry, the tested form may be a part): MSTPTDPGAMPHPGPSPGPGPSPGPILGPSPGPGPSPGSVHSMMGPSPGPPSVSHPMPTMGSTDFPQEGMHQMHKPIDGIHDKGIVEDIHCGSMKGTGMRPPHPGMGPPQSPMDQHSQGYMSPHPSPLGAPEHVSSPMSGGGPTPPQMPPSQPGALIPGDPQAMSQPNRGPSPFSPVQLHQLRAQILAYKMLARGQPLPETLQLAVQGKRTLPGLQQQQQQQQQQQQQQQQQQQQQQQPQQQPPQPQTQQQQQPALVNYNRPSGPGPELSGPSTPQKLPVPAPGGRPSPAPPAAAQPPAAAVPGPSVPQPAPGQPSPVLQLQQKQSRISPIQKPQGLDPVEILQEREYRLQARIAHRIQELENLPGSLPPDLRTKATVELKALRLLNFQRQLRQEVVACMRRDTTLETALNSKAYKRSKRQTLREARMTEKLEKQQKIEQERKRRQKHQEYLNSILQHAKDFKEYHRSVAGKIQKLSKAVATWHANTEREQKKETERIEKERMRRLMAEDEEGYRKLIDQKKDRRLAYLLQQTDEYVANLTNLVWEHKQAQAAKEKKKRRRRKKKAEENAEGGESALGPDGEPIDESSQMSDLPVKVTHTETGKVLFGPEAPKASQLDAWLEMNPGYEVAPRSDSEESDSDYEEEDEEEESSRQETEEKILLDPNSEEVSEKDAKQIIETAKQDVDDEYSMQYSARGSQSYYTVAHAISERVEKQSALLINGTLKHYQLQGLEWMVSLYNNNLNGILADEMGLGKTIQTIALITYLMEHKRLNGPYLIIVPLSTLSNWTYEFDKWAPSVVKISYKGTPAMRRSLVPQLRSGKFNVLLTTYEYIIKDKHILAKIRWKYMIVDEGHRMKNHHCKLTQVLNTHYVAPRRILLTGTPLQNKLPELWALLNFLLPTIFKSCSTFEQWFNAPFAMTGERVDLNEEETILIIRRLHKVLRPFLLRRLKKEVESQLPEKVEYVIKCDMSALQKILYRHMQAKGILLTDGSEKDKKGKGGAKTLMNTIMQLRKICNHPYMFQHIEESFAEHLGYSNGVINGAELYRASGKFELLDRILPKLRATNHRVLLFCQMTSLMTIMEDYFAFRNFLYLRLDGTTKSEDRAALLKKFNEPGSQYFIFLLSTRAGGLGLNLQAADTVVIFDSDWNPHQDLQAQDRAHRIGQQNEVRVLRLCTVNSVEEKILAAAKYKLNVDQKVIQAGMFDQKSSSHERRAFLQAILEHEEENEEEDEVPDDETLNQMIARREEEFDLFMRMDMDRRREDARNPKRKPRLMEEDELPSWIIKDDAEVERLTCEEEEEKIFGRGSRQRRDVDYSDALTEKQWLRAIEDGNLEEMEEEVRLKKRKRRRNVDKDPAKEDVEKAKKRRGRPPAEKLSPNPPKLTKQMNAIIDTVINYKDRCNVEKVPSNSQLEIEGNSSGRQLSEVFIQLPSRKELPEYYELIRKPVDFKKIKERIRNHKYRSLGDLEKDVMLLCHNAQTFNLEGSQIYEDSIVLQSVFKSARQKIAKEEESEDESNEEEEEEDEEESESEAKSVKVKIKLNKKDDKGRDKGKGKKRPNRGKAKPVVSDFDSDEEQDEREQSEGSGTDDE

Row | Compound | DC50 (HiBit-BRM fusion protein) | BRM HiBit Degradation Maximum measured (HiBit-BRM fusion protein) | DC50 [1] | Dmax [1]
1 | CS(=O)(=O)n1ccc(C(=O)NCC(=O)Nc2nc(-c3cccc(-c4ccnc(C5(C(=O)NCCCCCNc6cccc7c6C(=O)N(C6CCC(=O)NC6=O)C7=O)CC5)c4)c3)cs2)c1 (centres unmarked) [Compound 12, N-(2-((4-(3-(2-(1-((5-((2-(2,6-dioxopiperidin-3-yl)-1,3-dioxoisoindolin-4-yl)amino)pentyl)carbamoyl)cyclopropyl)-pyridin-4-yl)phenyl)thiazol-2-yl)amino)-2-oxoethyl)-1-(methylsulfonyl)-1H-pyrrole-3-carboxamide] | > 10 µM | C (‘C’ = Maximum degradation <50%) | 0.1 to 1 µM | > 75%
2 | CS(=O)(=O)n1ccc(C(=O)N[C@@H](COCc2ccc(C(=O)NCCOCc3cccc(COCCOc4ccc5c(c4)C(=O)N(C4CCC(=O)NC4=O)C5=O)c3)cc2)C(=O)Nc2nc(-c3ccccc3)cs2)c1 (stereo partly drawn) [Compound 237, N-[2-([3-[(2-[[2-(2,6-dioxopiperidin-3-yl)-1,3-dioxoisoindol-5-yl]oxy]ethoxy)methyl]phenyl]methoxy)ethyl]-4-[[(2S)-2-[(1-methanesulfonylpyrrol-3-yl)formamido]-2-[(4-phenyl-1,3-thiazol-2-yl)carbamoyl]ethoxy]methyl]benzamide] | 0.1 to 1 µM | B (‘B’ = Maximum degradation ≥50% and ≤75%) | 0.1 to 1 µM | 50 to 75%
3 | CS(=O)(=O)n1ccc(C(=O)N[C@@H](COCc2ccc(CNC(=O)CCN3CC4(C3)CN(c3ccc5c(c3)C(=O)N(C3CCC(=O)NC3=O)C5=O)C4)cc2)C(=O)Nc2nc(-c3ccccc3)cs2)c1 (stereo partly drawn) [Compound 176, (2S)-3-([4-[(3-[6-[2-(2,6-dioxopiperidin-3-yl)-1,3-dioxoisoindol-5-yl]-2,6-diazaspiro[3.3]heptan-2-yl]propanamido)methyl]phenyl]methoxy)-2-[(1-methanesulfonylpyrrol-3-yl)formamido]-N-(4-phenyl-1,3-thiazol-2-yl)propanamide] | 0.1 to 1 µM | B (‘B’ = Maximum degradation ≥50% and ≤75%) | 0.1 to 1 µM | 50 to 75%
4 | CS(=O)(=O)n1ccc(C(=O)N[C@@H](CCOCCCC(=O)NCCOCCOCCNC(=O)COc2ccc3c(c2)C(=O)N(C2CCC(=O)NC2=O)C3=O)C(=O)Nc2nc(-c3ccccc3)cs2)c1 (stereo partly drawn) [Compound 274, (2S)-4-[3-[(2-[2-[2-(2-[[2-(2,6-dioxopiperidin-3-yl)-1,3-dioxoisoindol-5-yl]oxy]acetamido)ethoxy]ethoxy]ethyl)carbamoyl]propoxy]-2-[(1-methanesulfonylpyrrol-3-yl)formamido]-N-(4-phenyl-1,3-thiazol-2-yl)butanamide] | > 10 µM | C (‘C’ = Maximum degradation <50%) | > 10 µM | < 50%
5 | Cc1ncsc1-c1ccc(CNC(=O)[C@@H]2C[C@@H](O)CN2C(=O)[C@@H](NCc2cccc(-c3cccc(-c4csc(NC(=O)CNC(=O)c5ccn(S(C)(=O)=O)c5)n4)c3)c2)C(C)(C)C)cc1 [Compound 164, (2S,4R)-4-hydroxy-1-[(2S)-2-([[3′-(2-[2-[(1-methanesulfonylpyrrol-3-yl)formamido]acetamido]-1,3-thiazol-4-yl)-[1,1′-biphenyl]-3-yl]methyl]amino)-3,3-dimethylbutanoyl]-N-[[4-(4-methyl-1,3-thiazol-5-yl)phenyl]methyl]pyrrolidine-2-carboxamide] | > 10 µM | C (‘C’ = Maximum degradation <50%) | > 10 µM | < 50%
